According to ChEMBL document CHEMBL5120812, “Cytotoxic Nitrobenzoyl Sesquiterpenoids from an Antarctica Sponge-Derived Aspergillus insulicola” (J Nat Prod, 2022):

How the values were obtained:
Format in all cases: functional, cell-based
[1] = tested on: PANC-1; experiment: Cytotoxicity against human PANC-1 cells assessed as inhibition of cell growth incubated for 72 hrs by SRB assay; conditions: PANC-1, 72 h
[2] = tested on: ASPC1; experiment: Cytotoxicity against human ASPC1 cells assessed as inhibition of cell growth incubated for 72 hrs by SRB assay; conditions: ASPC1, 72 h
[3] = tested on: MDA-MB-231; experiment: Cytotoxicity against human MDA-MB-231 cells assessed as inhibition of cell growth incubated for 72 hrs by SRB assay; conditions: MDA-MB-231, 72 h

`C=C(CCCCCCCC(=O)OC[C@@]1(C)CCC[C@@]2(C)[C@H]1[C@H](OC(=O)c1ccc([N+](=O)[O-])cc1)C=C1C(=O)OC[C@@]12O)C(=O)O` showed an IC50 [1] of 4.6 µM, an IC50 [2] of 2.7 µM and an IC50 [3] of 11.7 µM.
